Read-outs that look alike come from different tables or passages of the source.
Target: T1, human serum albumin (HSA) (Homo sapiens, UniProt P02768)
T1 construct: gene ALB; commercial human serum albumin purchased from Merck
Assay: fluorescence polarization titration, nonlinear […] fit
Type: binding

T1 sequence (P02768 25-609): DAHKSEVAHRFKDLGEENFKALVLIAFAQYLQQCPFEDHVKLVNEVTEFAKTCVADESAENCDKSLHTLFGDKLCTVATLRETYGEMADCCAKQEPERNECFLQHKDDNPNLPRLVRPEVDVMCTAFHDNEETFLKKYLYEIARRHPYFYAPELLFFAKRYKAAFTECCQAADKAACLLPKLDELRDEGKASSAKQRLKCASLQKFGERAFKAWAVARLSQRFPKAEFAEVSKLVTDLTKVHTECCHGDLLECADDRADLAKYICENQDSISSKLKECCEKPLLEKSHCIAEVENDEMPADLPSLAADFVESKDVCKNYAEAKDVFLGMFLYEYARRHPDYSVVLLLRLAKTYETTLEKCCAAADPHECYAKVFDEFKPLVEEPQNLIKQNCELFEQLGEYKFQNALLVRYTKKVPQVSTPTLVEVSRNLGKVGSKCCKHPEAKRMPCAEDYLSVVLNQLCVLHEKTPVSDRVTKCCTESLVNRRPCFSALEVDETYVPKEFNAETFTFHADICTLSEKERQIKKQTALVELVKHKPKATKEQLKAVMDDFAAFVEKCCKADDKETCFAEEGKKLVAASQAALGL

Compound | Kd [nM] | Kd (read-out: logK (1-HSA, Absence of 2) (converted)) [nM]
CC1(C)C(CO)=C(c2ccc3ccc4cccc5ccc2c3c45)C(C)(C)N1[O] [compound 1, 3-hydroxymethyl-1-oxyl-4-(pyren-1-yl)-2,2,5,5-tetramethyl-2,5-dihydro-1H-pyrrole radical] | 1410 | –
CON1C(C)(C)C(CO)=C(c2ccc3ccc4cccc5ccc2c3c45)C1(C)C [compound 6, (1-methoxy-2,2,5,5-tetramethyl-4-(pyren-1-yl)-2,5-dihydro-1H-pyrrol-3-yl)methanol] | – | 331

Source: article PMC10096054, “A New Application of Spin and Fluorescence Double-Sensor Molecules” (Molecules, 2023)
